Reference: US20220274967A1, “BCAT MODULATION” (Icagen, LLC, priority 2019, published 2022)

Key:
BCAT2 = biological target: T1, BCAT2 (Homo sapiens, UniProt O15382); experiment: BCAT2 enzyme inhibition (human); assay type: biochemical
T1 sequence (O15382 28-392): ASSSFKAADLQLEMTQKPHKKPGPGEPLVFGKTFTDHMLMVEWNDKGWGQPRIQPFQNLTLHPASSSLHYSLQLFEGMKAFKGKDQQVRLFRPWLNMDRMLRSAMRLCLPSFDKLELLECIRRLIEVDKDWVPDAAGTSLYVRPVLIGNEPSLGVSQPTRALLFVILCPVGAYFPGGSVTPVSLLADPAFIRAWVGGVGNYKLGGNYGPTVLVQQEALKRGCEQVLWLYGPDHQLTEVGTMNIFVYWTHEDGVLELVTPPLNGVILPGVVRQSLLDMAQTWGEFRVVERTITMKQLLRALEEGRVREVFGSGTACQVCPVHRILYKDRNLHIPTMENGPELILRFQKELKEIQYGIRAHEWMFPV
Method: In further embodiments, the functional modulation of BCAT2 is assayed using a cell-free assay. In various embodiments, the cell-free assay is an enzyme-coupled fluorescent assay. For example, the disclosure contemplates use of an assay that monitors the production of L-glutamate from branch-chain amino acids and α-ketoglutarate through the coupling of hBCATm activity to two additional enzymes, L-Glutamate Oxidase (L-GOx) and Horseradish Peroxidase (HRP). Specifically, L-GOx catabolizes L-glutamate to generate α-ketoglutarate and […], the latter being utilized by HRP and leading to the formation of fluorescent resorufin from the redox-sensitive dye Amplex Red. In some embodiments, the test compound is classified as a candidate compound if a decrease in L-glutamate is measured. In further embodiments, the test compound is classified as a candidate compound if a decrease in α-ketoglutarate is measured.

BCAT1 = biological target: T2, BCAT1 (Homo sapiens, UniProt P54687); experiment: BCAT1 enzyme inhibition (human), Glutamate Glo luminescence; assay type: biochemical
T2 sequence (P54687 1-386): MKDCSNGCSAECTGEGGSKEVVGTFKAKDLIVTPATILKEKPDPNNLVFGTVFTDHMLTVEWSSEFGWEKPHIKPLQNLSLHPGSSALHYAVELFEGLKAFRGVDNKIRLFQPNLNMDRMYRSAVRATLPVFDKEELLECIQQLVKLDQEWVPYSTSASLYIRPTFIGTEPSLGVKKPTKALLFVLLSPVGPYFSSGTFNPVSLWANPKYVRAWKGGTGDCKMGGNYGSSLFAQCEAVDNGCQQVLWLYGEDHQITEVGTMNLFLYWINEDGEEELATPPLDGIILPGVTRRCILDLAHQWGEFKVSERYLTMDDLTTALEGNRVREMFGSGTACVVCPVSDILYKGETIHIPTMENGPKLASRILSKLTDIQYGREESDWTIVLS
Method: The BCAT1 inhibitory activity of selected compounds of the present disclosure were also evaluated. Compounds were prepared as up to 10 mM stock solutions generally using DMSO as the vehicle. 10-point dose response curves were generated using the Echo-550 (Labcyte) acoustic dispenser. Compound source plates ([…]) were made by serially diluting compound stocks to create 1 mM, 0.1 mM, and 0.01 mM solutions in DMSO into Echo certified LDV plates. The Echo then serially spotted 100% DMSO stock solutions into source dose response plates to generate a semi-log fold dilution scheme. 100% DMSO was added to the spotted dose response plates to bring the final volume to 5 μL, creating a 333× stock plate. 120 nL of the dose response stock plate was then spotted into the assay plate. 10 μL of assay buffer (50 mM Tris with 0.05% TWEEN-20) was then added to the plates resulting in a 4× working concentration in the assay plate. Final assay test concentration range was 3 μM to 0.0001 μM with a final DMSO concentration of 0.3%.
BCAT1 enzyme stock was first diluted to a 4× working concentration of 0.24 μg/mL in assay buffer (final assay concentration is 0.06 ug/ml). 10 μL of the 4×BCAT1 solution was then added to the previously prepared assay plate containing test compound or controls, and incubated at room temperature, protected from light, for either 10 or 60 minutes. After the compound incubation period, 20 μL of assay buffer plus 2× substrate is added to all wells (Final assay concentration of substrates is 300 μM L-leucine and 250 μM alpha-ketoglutaric acid). Enzyme reaction was then incubated for 10 minutes at room temperature. After the 10 minute incubation, the enzymatic reaction was halted with the addition of 5 μL of 0.6N HCl and incubated for 1 min. 5 μL of 1M Tris (pH 8.0) was then added to neutralize pH. 12.5 μL of the quenched assay volume was then transferred to a white, 384 well plate and 12.5 μL of Glutamate detection reagent was added (detection reagent prepared per Promega Glutamate Glo kit instructions). Plates were then incubated for 30 minutes at room temperature, protected from light. After glutamate detection incubation period, luminescence was read on BMG Novostar and relative light units was measured and exported for analysis.
Compound modulation of BCAT1 enzymatic activity was determined as follows. IC50 values were calculated in ActivityBase, using a 4-parameter fit equation. Data was normalized to maximum inhibition form the reference agent VS558CSA (at 10 μM). Relative light units were exported for analysis and % inhibition values for each well were calculated using the following formula: […]

GM00371 cells = experiment: Viability assay (Cell titer glo) in the 3-HIB assay; assay type: cell-based, human; conditions: Homo sapiens, 24 h, read-out: 3HIB INHIBITION IC50 (μM) MEAN GM00371 cells Viablility Assay
Method: Cell Plating: Cells (Coriell Institute GM00371 cells) were plated (96-well clear bottom sterile plate; Greiner 655098) at 10,000 cells/0.1 mL in Eagle's minimum essential medium (EMEM)/15% FBS (Gibco 16000-044) with a Combi dispenser in a cell culture hood and incubated at 37° C. and 5% CO2 overnight.
Compound Dilution: Compound were prepared as 33.3× intermediate dilution in DMSO in 96 well round polystyrene plates. For 30 μM final maximum start with 30 μL of 10 mM in DMSO. 10-12 1:3 serial dilutions were prepared from left to right (20 μL+40 μL DMSO). A 10× secondary dilution was prepare in EMEM by taking 7.5 μL 33.3× and transfer to replicate 96 well round polystyrene plates and then adding 242.5 μL EMEM A 1× final dilution in EMEM was prepared by taking 50 μL 10× dilution and transferring to replicate 96 well polypropylene assay block (Costar 3956) and adding 450 μL EMEM A control was prepared for maximal compound inhibition by taking 20 μL 10 mM Reference Compound A and adding 40 μL DMSO for a concentration of 3.3 mM To 7.5 μL of the 3.3 mM Reference Compound A solution and added 242.5 μL EMEM to make a 100 μM solution. The subsequent Reference Compound A solution was diluted with EMEM to achieve a final concentration of 10 μM. The structure of Reference Compound A is:
A control was prepared for maximal compound toxicity by taking 7.5 μL Reference Compound B and 242.5 μL EMEM to make […]. 50 μL of that 100 μM Reference Compound B solution was combined with 450 μL EMEM to achieve a concentration of 30 μM. The structure of Reference Compound B is
Compound Treatment: Media was aspirated from the cells and 100 μL of D-PBS (ThermoFisher 14190144) was added and then removed. 100 μL of diluted compound was added to the cells in the place and the cells were incubated at 37° C. and 5% CO2 for 24 hours.
Viability Assay: To the cells remaining in the plate 25 μL D-PBS and 25 μL Cell titer glo reagent (Promega G7572). The plate was placed on a shaker for 2 minutes, incubated at room temperature in the dark and then read on a Clariostar microplate reader.

Structure (SMILES) | IC50 (BCAT2) | IC50 (BCAT1) | IC50 (GM00371 cells)
CNC(=O)c1ccc2c(c1)nc(-c1ccccc1C(F)F)n2C1CCC[C@@H](NC(=O)c2ccc(Cl)s2)C1 (some centres unmarked) [Compound 222] | < 100 nM | 100 to 500 nM | 0.1 to 0.5 µM
CNC(=O)c1cc2nc(-c3ccccc3C)n([C@H]3CCC[C@@H](NC(=O)c4ccc(Cl)s4)C3)c2cc1F [Compound 205] | < 100 nM | 100 to 500 nM | ≥ 1 µM
CNC(=O)c1cc2nc(-c3ccccc3F)n([C@H]3CCC[C@@H](NC(=O)c4ccc(Cl)s4)C3)c2cc1F [Compound 206] | < 100 nM | < 100 nM | 0.1 to 0.5 µM
CNC(=O)c1ccc2c(c1)nc(-c1sccc1C)n2[C@H]1CCC[C@@H](NC(=O)c2ccc(Br)s2)C1 [Compound 169] | < 100 nM | ≥ 1000 nM | ≥ 1 µM
O=C(N[C@@H]1CCC[C@H](n2c(-c3ccccc3F)nc3cccnc32)C1)c1ccc(Br)s1 [Compound 285] | < 100 nM | 500 to 1000 nM | 0.5 to 1 µM
CNC(=O)c1ccc2c(c1)nc(-c1ccccc1[N+](=O)[O-])n2C1CCCC(NC(=O)c2ccc(C#N)s2)C1 (centres unmarked) [Compound 200] | < 100 nM | 100 to 500 nM | ≥ 1 µM
CNC(=O)c1ccc2c(c1)nc(-c1ccccc1C(F)F)n2C1CCC[C@@H](NC(=O)c2ccc(Br)s2)C1 (some centres unmarked) [Compound 223] | < 100 nM | < 100 nM | 0.1 to 0.5 µM
CNC(=O)c1cc2nc(-c3cccc(F)c3)n(C3CCC[C@@H](NC(=O)c4ccc(F)s4)C3)c2cc1F (some centres unmarked) [Compound 225] | < 100 nM | ≥ 1000 nM | ≥ 1 µM
CNC(=O)c1ccc2c(c1)nc(-c1ccccn1)n2[C@H]1C[C@@H](NC(=O)c2ccc(Br)s2)CC(F)(F)C1 [Compound 239] | 100 to 500 nM | ≥ 1000 nM | 0.1 to 0.5 µM
CNC(=O)c1ccc2c(c1)nc(-c1ccccc1OC(F)(F)F)n2[C@H]1CCC[C@@H](NC(=O)c2ccc(Br)s2)C1 [Compound 166] | < 100 nM | 500 to 1000 nM | 0.1 to 0.5 µM
CNC(=O)c1ccc2c(c1)nc(-c1ccccc1C(F)F)n2C1CCC[C@@H](NC(=O)c2ccc(C#N)s2)C1 (some centres unmarked) [Compound 221] | < 100 nM | 100 to 500 nM | ≥ 1 µM
CNC(=O)c1cc2nc(-c3cccc(F)c3)n(C3CCC[C@@H](NC(=O)c4ccc(Cl)s4)C3)c2cc1F (some centres unmarked) [Compound 224] | < 100 nM | 100 to 500 nM | 0.1 to 0.5 µM
CNC(=O)c1cc2nc(-c3ccccc3F)n(C3CCC[C@@H](NC(=O)c4ccc(F)s4)C3)c2cc1F (some centres unmarked) [Compound 226] | < 100 nM | 100 to 500 nM | 0.5 to 1 µM
CNC(=O)c1ccc2c(c1)nc(-c1cccc(F)c1)n2C1CCCN(C(=O)Nc2ccccc2Cl)C1 (centres unmarked) [Compound 227] | > 1000 nM | ≥ 1000 nM | –
CNC(=O)c1ccc2c(c1)nc(-c1cnccn1)n2[C@H]1CCC[C@@H](NC(=O)c2ccc(Br)s2)C1 [Compound 149] | 100 to 500 nM | ≥ 1000 nM | –
O=C(N[C@@H]1CCC[C@H](n2c(-c3ccccn3)nc3cnc(F)cc32)C1)c1ccc(Br)s1 [Compound 302] | < 100 nM | 500 to 1000 nM | –
CNC(=O)c1cc2nc(-c3ncccc3F)n([C@H]3CCC[C@@H](NC(=O)c4ccc(Cl)s4)C3)c2cn1 [Compound 286, 3-((1S,3R)-3-(5-chlorothiophene-2-carboxamido)cyclohexyl)-2-(3-fluoropyridin-2-yl)-N-methyl-3H-imidazo[4,5-c]pyridine-6-carboxamide] | < 100 nM | < 100 nM | –
O=C(N[C@@H]1CCC[C@H](n2c(-c3ccccn3)nc3cnc(F)cc32)C1)c1ccc(Cl)s1 [Compound 288] | 100 to 500 nM | ≥ 1000 nM | –
CNC(=O)c1cc2nc(-c3c(F)ccc(F)c3O)n([C@H]3CCC[C@@H](NC(=O)c4ccc(Br)s4)C3)c2cc1F [Compound 233] | < 100 nM | 500 to 1000 nM | –
CNC(=O)c1cc2nc(-c3ncccc3F)n([C@H]3CCC[C@@H](NC(=O)c4ccc(Cl)s4)C3)c2cc1Cl [Compound 236] | 100 to 500 nM | ≥ 1000 nM | –
CNC(=O)c1ccc2c(c1)nc(-c1ccccc1C#N)n2[C@H]1CCC[C@@H](C(=O)Nc2ccccc2)C1 [Compound 203] | > 1000 nM | ≥ 1000 nM | –
CNC(=O)c1ccc2c(c1)nc(-c1ccccn1)n2[C@H]1CCC[C@@H](NC(=O)c2sc(Cl)cc2OC)C1 [Compound 243] | 100 to 500 nM | ≥ 1000 nM | –
CCCNC(=O)c1ccc2c(c1)nc(-c1ccccn1)n2[C@@H]1CCC[C@H](NC(=O)c2ccc(Br)s2)C1 [Compound 204] | 100 to 500 nM | ≥ 1000 nM | –
CNC(=O)c1ccc2c(c1)nc(-c1ccccc1F)n2[C@H]1CCC[C@@H](C(=O)Nc2ccccc2)C1 [Compound 202] | > 1000 nM | ≥ 1000 nM | –
O=C(N[C@@H]1CCC[C@H](n2c(-c3ncccc3F)nc3ccncc32)C1)c1ccc(Br)s1 [Compound 298] | < 100 nM | 500 to 1000 nM | –
CNC(=O)c1ccc2c(c1)nc(-c1ncccn1)n2[C@H]1CCC[C@@H](NC(=O)c2ccc(Br)s2)C1 [Compound 147] | < 100 nM | ≥ 1000 nM | –
